Type in all cases: cell-based
For one assay, the target named is T1, GPR139 F109L^3×33 (Homo sapiens, UniProt Q6DWJ6, F109L).
T1 construct: myc (N); expressed in transfected cells
T1 sequence (Q6DWJ6 1-353 F109L): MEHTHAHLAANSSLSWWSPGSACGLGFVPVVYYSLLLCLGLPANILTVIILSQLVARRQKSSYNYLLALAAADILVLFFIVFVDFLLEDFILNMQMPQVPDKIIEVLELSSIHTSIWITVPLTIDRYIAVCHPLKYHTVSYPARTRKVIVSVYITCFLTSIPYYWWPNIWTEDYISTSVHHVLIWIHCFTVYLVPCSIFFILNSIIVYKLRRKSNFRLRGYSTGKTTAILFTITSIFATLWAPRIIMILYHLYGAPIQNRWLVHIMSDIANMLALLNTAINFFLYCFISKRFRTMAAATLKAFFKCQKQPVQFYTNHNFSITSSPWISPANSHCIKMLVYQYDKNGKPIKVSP
Briefly: Ca2+ mobilization on GPR139 mutant F109L. The settings on record: highest tested concentration (100 μM), n = 3. As for the experimental part: (§1) Figure 4 Ca^2+ mobilization concentration-response curves of AC4 on GPR139 wild-type (WT) and mutants. Data is shown from a representative experiment (mean ± S.D.) out of three independent experiments performed in duplicate. Data is normalized to the Ca^2+ response of buffer (0%) and 100 μM AC4 (100%) on myc-GPR139(WT). Residue numbering in superscript is according to GPCRdb numbering system.
(§2) The mutational studies were performed as previously described.
(A change in cytosolic calcium serves as a functional read-out for many receptors and channels.)

For the next assay, the target named is T2, GPR139 N271A^7×38 (Homo sapiens, UniProt Q6DWJ6, N271A).
T2 construct: myc (N); expressed in transfected cells
T2 sequence (Q6DWJ6 1-353 N271A): T1 sequence (Q6DWJ6 1-353 F109L) with L109F, N271A
In words: Ca2+ mobilization on GPR139 mutant N271A. As for the experimental part:
as §1, §2

The target in another assay is T3, GPR139 W241H^6×48 (Homo sapiens, UniProt Q6DWJ6, W241H).
T3 construct: myc (N); expressed in transfected cells
T3 sequence (Q6DWJ6 1-353 W241H): T1 sequence (Q6DWJ6 1-353 F109L) with L109F, W241H
Briefly: Ca2+ mobilization on GPR139 mutant W241H. As for the experimental part:
as §1, §2

The target in a further assay is T4, GPR139 (Homo sapiens, UniProt Q6DWJ6).
T4 construct: host or cells: CHO-k1
T4 sequence (Q6DWJ6 1-353): T1 sequence (Q6DWJ6 1-353 F109L) with L109F
Briefly: Fluo-4 calcium mobilization assay, agonist mode, concentration-response curves in CHO-GPR139 cells. As for the experimental part: All compounds were tested on a CHO-k1 cell line stably expressing GPR139 (CHO-GPR139)[11] kindly provided by H. Lundbeck A/S, Denmark. GPR139-specific responses were assessed using a CHO-k1 cell line stably expressing the muscarinic acetylcholine receptor M1 (CHO-M1) (The Missouri S&T cDNA Resource Center, # CEM100TN00). The CHO-GPR139 cells were grown in Dulbecco’s modified Eagle’s medium (DMEM) F12-Kaighn’s (ThermoFisher Scientific # 21127) supplemented with 10% dialyzed fetal bovine serum (United States origin; ThermoFisher Scientific # 26400), 1% GlutaMAX-I (100X) (ThermoFisher Scientific # 35050061), and 100 units/mL penicillin and 100 µg/mL streptomycin (ThermoFisher Scientific # 15140122) and 1 mg/mL geneticin (ThermoFisher Scientific # 11811031). The CHO-M1 cells were grown in Ham’s F12 (ThermoFisher Scientific # 21765) supplemented with 10% fetal bovine serum (South American origin; ThermoFisher Scientific # 10270) + 100 units/mL penicillin and streptomycin and 0.25 mg/mL geneticin.
The Fluo-4 Ca^2+-assay was performed as described previously, with minor modifications. After 1 hour incubation with the Fluo-4 dye, the CHO-GPR139 cells were washed with 100 μL HEPES buffer (Hank’s Balanced Salt Solution (HBBS, ThermoFisher Scientific # 14175053) supplemented with 20 mM HEPES, 1 mM MgCl2, 1 mM CaCl2, pH = 7.4) and the compound library was then added in concentrations between 25–63 μM dissolved in HEPES buffer (supplemented with 2.5 mM probenecid and 1% DMSO) and pre-incubated for 10 min at 37 °C. 33 μL of 3.2 μM 1a were added automatically after baseline measurements. […] This set-up allowed us to identify both antagonists and agonists (Fig. 2).
Each compound, for which a concentration response curve was made, was tested at least three times in duplicate measurements. After the incubation with the Fluo-4 dye and a wash, 100 μL HEPES buffer (supplemented with 2.5 mM probenecid) was added to each well and incubated for 10 minutes at 37 °C before recording. 33 μL of compounds (4× concentrated) were added automatically after baseline measurements.
The Ca^2+ and ERK responses were normalized as indicated and the concentration response curves were fitted by Prism 6 software (GraphPad) using nonlinear regression in a sigmoidal model with variable slope, as has been previously described.

Positions count from the first letter of the chain named.

For orientation: Emax means the size of the effect at its maximum, as opposed to the concentration needed.

Consider `O=C(O)C1CC=CCC1c1nnc(CSc2ccc(Cl)cc2)o1` (stereo not shown) [AC4], for which the “Ca2+ response” value at GPR139 F109L^3×33 was 17 ± 2 % of WT; at GPR139 N271A^7×38 it was “no measurable Ca^2+ response”. Moreover, the Emax came out at 37 ± 3% on GPR139 W241H^6×48 (mutant W241H, n = 3); 116 ± 3% on GPR139 (CHO-GPR139 cells, normalized to buffer (0%) and 8 μM 1a (100%)); 115 ± 3% on GPR139 (Table S1, normalized to compound 1a). For the same compound, at GPR139 W241H^6×48 (printed as lower EC50 than on WT), the “fold change of EC50 on W241H versus WT” value amounted to 12 fold. The EC50 on GPR139 (CHO-GPR139 cells, read-out: pEC50 ± S.E.M. (converted)) is 219 nM.

These data come from PMC6405842, “Identification of a novel scaffold for a small molecule GPR139 receptor agonist” (Scientific Reports, 2019).
